Test results reported in patent US9611292B2, “Peptide inhibitors of serotonin 5-HT2c receptors:PTEN interaction” (THE BOARD OF REGENTS OF THE UNIVERSITY OF TEXAS SYSTEM, priority 2011, dated 2017).
“Also recorded” adds a separate entry of the source.

Legend:
5-HT2CR = assay: Cai++ release in 5-HT2CR-CHO cells; type: cell-based
Text: (§1) The 5-HT2CR:PTEN complex occurs in rat brain regions implicated in palatable food reward. […] These cells have been employed for 5-HT2CR signaling studies. […] Providing 3L4F and fragments thereof disrupt the complex in the cell and result in the lack of co-localization of the molecules by immunohistochemistry or by immunoprecipitation studies. 5-HT2CR and PTEN can be co-immunoprecipitated from brain tissue samples. Additional studies using the split luciferase assay also detect direct coupling of 5-HT2CR with PTEN.
Functional analysis of the complex was investigated using Cai^++ release in 5-HT2CR-CHO cells. […] The studies have shown that the 3L4F peptide enhances Cai^++ release via a 5-HT2CR specific mechanism acting down stream ligand binding.
FIG. 15 compares the efficacy of derivatives 210 and A1 in terms of % 1 nM 5-HT induced Cai^++ release in 5-HT2CR-CHO cells. FIG. 16 compares the efficacy of derivatives 210 and A2 in terms of % 1 nM 5-HT induced Cai^++ Release in 5-HT2CR-CHO cells. FIG. 17 compares the efficacy of derivatives 210 and A3 in terms of % 1 nM 5-HT induced Cai^++ release in 5-HT2CR-CHO cells. FIG. 18 compares the efficacy of derivatives 210 and A4 in terms of % 1 nM 5-HT induced Cai^++ release in 5-HT2CR-CHO cells. FIG. 19 compares the efficacy of derivatives 210 and A5 in terms of % 1 nM 5-HT induced Cai^++ release in 5-HT2CR-CHO cells. FIG. 20 compares the efficacy of derivatives 210 and A6 in terms of % 1 nM 5-HT induced Cai^++ release in 5-HT2CR-CHO cells. FIG. 21 compares the efficacy of derivatives 210 and A8 in terms of % 1 nM 5-HT induced […] release in 5-HT2CR-CHO cells.

5-HT2CR:PTEN complex = assay: in situ localization (immunohistochemistry / immunoprecipitation) of 5-HT2CR:PTEN association in cells; type: cell-based; settings: for disrupting activity on 5-HT2CR:PTEN association: summary statement, assay not specified
Text: as §1
Peptides described herein enhance 5-HT2CR signaling and peptide disruption of the serotonin (5-HT) 5-HT2CR interaction with protein phosphatase and tensin (PTEN). This interaction is functionally important to the 5-HT2CR signalosome.

5-HT2CR:PTEN interaction = assay: split luciferase assay of direct 5-HT2CR:PTEN interaction in live cells; type: cell-based
Text: In addition split luciferase assays were used to detect direct coupling of 5-HT2CR with PTEN.

5-HT2AR = molecular target: T1, 5-HT2AR (Homo sapiens, UniProt P28223); assay: Cai++ release in 5-HT2AR-CHO cells; type: cell-based
T1 construct: expressed in transfected cells; host or cells: CHO

rats = assay: 1-choice serial reaction time task, impulsive action (premature responses); type: in vivo, rat; settings: 1-choice serial reaction time task, single agent
Text: FIG. 23 illustrates additional behavioral effects of TAT-3L4F.

T1 sequence (P28223 whole entry): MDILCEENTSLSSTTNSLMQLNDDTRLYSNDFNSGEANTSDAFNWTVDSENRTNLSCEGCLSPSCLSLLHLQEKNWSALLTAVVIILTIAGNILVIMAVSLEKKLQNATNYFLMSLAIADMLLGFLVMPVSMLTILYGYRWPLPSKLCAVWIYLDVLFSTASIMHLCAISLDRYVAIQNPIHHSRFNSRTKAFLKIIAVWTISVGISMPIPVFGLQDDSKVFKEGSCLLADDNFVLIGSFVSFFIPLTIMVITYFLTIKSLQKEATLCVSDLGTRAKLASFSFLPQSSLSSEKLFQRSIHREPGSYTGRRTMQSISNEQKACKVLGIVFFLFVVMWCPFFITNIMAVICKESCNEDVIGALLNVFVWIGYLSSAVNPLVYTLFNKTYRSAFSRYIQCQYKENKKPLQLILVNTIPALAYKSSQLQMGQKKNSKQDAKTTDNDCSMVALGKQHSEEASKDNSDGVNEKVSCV

Compound	5-HT (1 nM) induced Cai++ release (5-HT2CR)	disrupting activity on 5-HT2CR:PTEN association (5-HT2CR:PTEN complex)	further results
V27-R45: 5-HT2CR N-terminus peptide fragment V27-R45 (VSPVAAIVTDIFNTSDGGR) [reference compound]	inactive		
QNARRRKK [derivative 212]	less efficacious than 3L4 F	less disrupting activity than the 210 fragment	
PNQDQNARRRKKKERR [3L4F]	increases	disrupter	WAY163909 induced Cai++ release (5-HT2CR; selective orthosteric 5-HT2CR agonist WAY163909): potentiates; 3L4F-enhanced 5-HT induced Cai++ release, effect of 5-HT2CR antagonist (5-HT2CR; with 5-HT2CR antagonist): inhibits; direct 5-HT2CR:PTEN interaction (5-HT2CR:PTEN interaction; NLuc fused to 3rd intracellular loop of 5-HT2CR, CLuc fused to PTEN): disrupts; direct 5-HT2CR:PTEN interaction (5-HT2CR:PTEN interaction; NLuc fused to full length 5-HT2CR): disrupts; 5-HT induced Cai++ release (5-HT2AR): does not alter; association of 5-HT2CR and PTEN (5-HT2CR:PTEN complex; quantitation of in situ localization studies): disrupts the association
c1cc2c3c(c1)[C@H]1CCC[C@H]1N3CCNC2 [WAY163909]			impulsive action (premature responses), agent alone (rats): neither of which have effects on their own
RRKKKERR [derivative 214]	less efficacious than 3L4 F	less disrupting activity than the 210 fragment	
PNQDQNAR [derivative 210]	retain 3L4F activity; also recorded: increase	active fragment	
